According to BindingDB's records for patent US8933095 (Pfizer, 2015):

Target: Kynurenine/alpha-aminoadipate aminotransferase, mitochondrial (Homo sapiens, UniProt Q8N5Z0)
Test: Inhibition Spectra Assay
Conditions: 37 °C
Experimental: Formation of kynurenic acid (KYNA) is indirectly assessed by a decrease in light absorbance at 370 nm (OD370) as the L-kynurenine (KYN) substrate is converted by the human KAT II (hKAT II) enzyme into KYNA. An inhibitor would therefore inhibit the decrease in OD370.The protocol was performed by placing the following reagents into a Costar 384 well black plate (30 uL total assay volume/well): 10 uL of 3x concentrated compound; 10 uL of 3x concentrated substrate mix (BGG (Sigma G-5009); 3 mM L-Kynurenine in 150 mM Tris Acetate (Sigma K3750); 3 mM alpha-ketoglutaric acid in 150 mM Tris Acetate (Sigma K2010); and 210 uM pyridoxal 5-phosphate (PLP) in 150 mM Tris Acetate (Sigma 9255)); and 10 uL of 3x concentrated enzyme (15 nM enzyme in 150 mM Tris Acetate with 0.3% bovine serum).Plates were sealed and incubated at 37 C. for 15-20 h before reading OD370 on a SpectraMax Plus plate reader.

Sequence of Kynurenine/alpha-aminoadipate aminotransferase, mitochondrial (Q8N5Z0 whole entry): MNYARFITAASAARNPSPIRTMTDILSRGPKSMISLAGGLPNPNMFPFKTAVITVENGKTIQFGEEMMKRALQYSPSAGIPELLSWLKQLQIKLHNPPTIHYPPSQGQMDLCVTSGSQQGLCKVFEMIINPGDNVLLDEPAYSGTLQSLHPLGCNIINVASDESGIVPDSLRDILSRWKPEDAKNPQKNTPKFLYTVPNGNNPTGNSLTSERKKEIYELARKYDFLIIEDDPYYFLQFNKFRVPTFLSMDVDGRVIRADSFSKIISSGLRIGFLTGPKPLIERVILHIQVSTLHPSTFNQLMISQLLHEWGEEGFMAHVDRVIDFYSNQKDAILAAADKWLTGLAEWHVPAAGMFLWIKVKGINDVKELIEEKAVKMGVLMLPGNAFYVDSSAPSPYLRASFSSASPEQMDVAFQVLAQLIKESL

IC50: 63.7 nM
SMILES: Cn1nc2c(c1Cc1ccccc1)C[C@@H](N)C(=O)N2O [US8933095, 2]
